Reference: US20250092065A1, “2-(INDAZOL-5-YL)-6-(PIPERIDIN-4-YL)-1,7-NAPHTHYRIDINE DERIVATIVES AND RELATED COMPOUNDS AS MODULATORS FOR SPLICING NUCLEIC ACIDS AND FOR THE TREATMENT OF PROLIFERATIVE DISEASES” (REMIX THERAPEUTICS INC., priority 2022, published 2025)
Read-outs that look alike come from different tables or passages of the source.

What was measured:
MYB mRNA = assay: RT-qPCR splicing assay, MYB mRNA canonical (CJ) and alternative (AJ) junction; type: cell-based, human; settings: Homo sapiens; for AC50: MYB alternative junction mRNA increase, read-out: MYB AJ (increase in alternative junction mRNA, AC50)
Method in brief: (§1)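 Splice switching quantified in compound-treated A673/K562 cells after 24 h exposure (top dose 10 uM, 3-fold steps, ≤0.25% DMSO), using CJ and AJ qPCR assays run at least in duplicate. RQ derived by 2^(−ΔΔCt), then percentage response.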

K562 cells = assay: Cell Titer Glo 2.0 cell viability (toxicity) assay, K562; settings: 500 cells/well, 72 hours
Target C = assay: RT-qPCR canonical junction panel assay, Target C mRNA; type: cell-based; settings: Table 4, read-out: Target C IC50 (decrease in CJ mRNA levels)
Description: Compounds described herein were used to modulate RNA transcript abundance in cells. The expression of a target mRNA was measured by detecting the formation of an exon-exon junction in the canonical transcript (CJ). A compound mediated exon-inclusion event was detected by observing an increase in formation of a new junction with an alternative exon (AJ). Real-time qPCR assays were used to detect these splicing switches and interrogate the potency of various compounds towards different target genes. A high-throughput real time quantitative PCR (RT-qPCR) assay was developed to measure these two isoforms of the mRNA (CJ and AJ) for exemplary genes, such as HTT, SMN2, and MYB, together with a control housekeeping gene, GAPDH or GUSB or PPIA, used for normalization. Briefly, the A673 or K562 cell line was treated with various compounds described herein (e.g., compounds of Formula (I)). After treatment, the levels of the HTT, MYB, or SMN2 mRNA targets were determined from each sample of cell lysate by cDNA synthesis followed by qPCR.
The data analysis was performed by first determining the ΔCt vs the housekeeper gene. This ΔCt was then normalized against the DMSO control (ΔΔCt) and converted to RQ (relative quantification) using the 2^(−ΔΔCt) equation. The RQ were then converted to a percentage response by arbitrarily setting an assay window of 3.5 and 4.0 ΔCt for HTT-CJ and MYB-CJ respectively and an assay window of 9 and 3 ΔCt for HTT-AJ and MYB-AJ in 96 well format (50,000 K562 cells/well and 15,000 A673 cells per well) and an assay window of 3 and 4 ΔCt for HTT-CJ and MYB-CJ respectively and an assay window of 5 and 3 ΔCt for HTT-AJ and MYB-AJ respectively in 384 well format (8,000 K562 cells/well example). […] The percentage response was then fitted to the 4 parametric logistic equation to evaluate the concentration dependence of compound treatment. The increase in AJ mRNA is reported as AC50 (compound concentration having 50% response in AJ increase) while the decrease in CJ mRNA levels is reported as IC50 (compound concentration having […] in CJ decrease).
Additional studies were carried out for a larger panel of genes using the protocol provided above. The junction between flanking upstream and downstream exons was used to design canonical junction Qpcr assays. At least one of the forward primer, reverse primer or the CY5-labeled 5′ nuclease probe (with 3′ quencher such as ZEN/Iowa Black FQ) was designed to overlap with the exon junction to capture the CJ Mrna transcript. BLAST was used to confirm the specificity of the probeset and parameters suCH As melting temperature, GC content, amplicon size, and primer dimer formation are considered during their design. Data for the decrease in CJ Mrna levels for four exemplary genes (HTT, SMN2, MYB, and Target C) analyzed in this panel are reported as IC50 (compound concentration having […] in CJ decrease).

HTT mRNA = assay: RT-qPCR splicing assay, HTT mRNA canonical (CJ) and alternative (AJ) junction; type: cell-based, human; settings: Homo sapiens; for AC50: HTT alternative junction mRNA increase, read-out: HTT AJ (increase in alternative junction mRNA, AC50)
Method in brief: as §1

SMN2 mRNA = assay: RT-qPCR splicing assay, SMN2 mRNA; type: cell-based, human; settings: Homo sapiens, canonical junction qPCR panel, Table 4; read-out: SMN2 IC50 (decrease in CJ mRNA levels)
Method in brief: as §1

[1] = RT-qPCR, MYB canonical junction mRNA decrease, read-out: MYB CJ (decrease in canonical junction mRNA, IC50)
[2] = canonical junction qPCR panel, Table 4, read-out: MYB IC50 (decrease in CJ mRNA levels)
[3] = RT-qPCR, HTT canonical junction mRNA decrease, read-out: HTT CJ (decrease in canonical junction mRNA, IC50)
[4] = canonical junction qPCR panel, Table 4, read-out: HTT IC50 (decrease in CJ mRNA levels)

| SMILES | AC50 (MYB mRNA; RT-qPCR) [nM] | IC50 (MYB mRNA; [1]) [nM] | IC50 (MYB mRNA; [2]) [nM] | Effect of Exemplary Compounds on Cell Viability, K562 (K562 cells) | IC50 (Target C) [nM] | AC50 (HTT mRNA; RT-qPCR) [nM] | IC50 (HTT mRNA; [3]) [nM] | IC50 (HTT mRNA; [4]) [nM] | IC50 (SMN2 mRNA) [nM] |
| --- | --- | --- | --- | --- | --- | --- | --- | --- | --- |
| Cc1cn2cc(-c3ncc4cc(N5C[C@@H](C)NC6(CC6)C5)ccc4n3)cc(F)c2n1 (single isomer, unassigned) [Compound 815] | 100 to 1000 | 100 to 1000 | 100 to 1000 | B (B represents 100-1000 nM) | > 10000 | 1000 to 10000 | 1000 to 10000 | 1000 to 10000 | < 100 |
| Cc1cn2cc(-c3ncc4cc(N5C[C@H](C)N[C@@H](C)C5)ccc4n3)cc(Cl)c2n1 (single isomer, unassigned) [Compound 818] | < 100 | < 100 | < 100 | A (A represents <100 nM) | 1000 to 10000 | 1000 to 10000 | 100 to 1000 | 100 to 1000 | < 100 |
| C[C@H]1CN(c2ccc3nc(-c4cc(F)c5nncn5c4)ncc3c2)C[C@H](C)N1 (single isomer, unassigned) [Compound 820] | 1000 to 10000 | 1000 to 10000 | 1000 to 10000 | C (C represents 1000-9999 nM) | > 10000 | > 10000 | > 10000 | > 10000 | 100 to 1000 |
| Cc1nc2c(F)cc(-c3ncc4cc(N5C[C@H](C)N[C@@H](C)C5)ccc4n3)cn2c1F (single isomer, unassigned) [Compound 822] | 1000 to 10000 | 100 to 1000 | 100 to 1000 | B (B represents 100-1000 nM) | 1000 to 10000 | > 10000 | 1000 to 10000 | 1000 to 10000 | 100 to 1000 |
| C[C@@H]1CN(c2ccc3nc(-c4cc(F)c5nn(C)cc5c4)ncc3c2)C[C@H](C)N1 [Compound 780, 6-[(3R,5S)-3,5-dimethylpiperazin-1-yl]-2-(7-fluoro-2-methylindazol-5-yl)quinazoline] | 100 to 1000 | 100 to 1000 | 100 to 1000 | B (B represents 100-1000 nM) | 1000 to 10000 | 1000 to 10000 | 1000 to 10000 | 1000 to 10000 | < 100 |
| Cc1nc(-c2cc(F)c3nn(C)cc3c2)nc2ccc(N3C[C@@H](C)N[C@@H](C)C3)cc12 [Compound 781, 6-[(3R,5S)-3,5-dimethylpiperazin-1-yl]-2-(7-fluoro-2-methylindazol-5-yl)-4-methylquinazoline] | 1000 to 10000 | 1000 to 10000 | 1000 to 10000 | C (C represents 1000-9999 nM) | > 10000 | > 10000 | > 10000 | > 10000 | 100 to 1000 |
| Cc1nc(-c2cc3cn(C)nc3cc2O)nc2ccc(N3C[C@@H](C)N[C@@H](C)C3)cc12 [Compound 782, 5-(6-((3S,5R)-3,5-dimethylpiperazin-1-yl)-4-methylquinazolin-2-yl)-2-methyl-2H-indazol-6-ol 2,2,2-trifluoroacetate] | 100 to 1000 | 100 to 1000 | 100 to 1000 | B (B represents 100-1000 nM) | > 10000 | > 10000 | 1000 to 10000 | 1000 to 10000 | < 100 |
| Cc1nc(-c2cc3cn(C)nc3c(C)c2O)nc2ccc(N3C[C@@H](C)N[C@@H](C)C3)cc12 [Compound 783, 5-{6-[(3R,5S)-3,5-dimethylpiperazin-1-yl]-4-methylquinazolin-2-yl}-2,7-dimethylindazol-6-ol] | 100 to 1000 | 100 to 1000 | 100 to 1000 | B (B represents 100-1000 nM) | > 10000 | > 10000 | > 10000 | > 10000 | < 100 |
